Patent US20230270704A1, “AMINOACIDS FOR TREATMENT OF NEUROLOGICAL DISORDERS” (ScandiBio Therapeutics AB, priority 2020, published 2023)

Experiments:
H2A.X = assay: Alzheimer's disease study in HFD + icv STZ rats, immunofluorescence examination of brain tissues (Texas Red); assay type: in vivo, Sprague-Dawley rats; conditions: for H2A.X expression in immunofluorescence staining: HFD + STZ rats, grade in words; for H2A.X (IFA Texas Red): HFD 5 weeks + STZ 3 mg/kg icv, substances once daily by oral gavage, score
Method: (§1) 12 weeks old female Sprague-Dawley rats (weighing 320-380 g) were kept at a controlled temperature of 22±2° C. and a controlled humidity of 50±5% on a 12-hour light/dark cycle. Food and water were available ad libitum. The animal experiments are performed at Medical Experimental Research Center, Ataturk University, Erzurum, Turkey. All experiments for the treatment of the animals were approved by the Ethics Committee of Atatürk University, and were conducted following the National Institutes of Health Guide for Care and Use of Laboratory Animals.
(§2) After acclimation to laboratory conditions for one (1) week, rats were randomly divided into two dietary regimens receiving either a Chow diet (CD) or a high-fat diet (HFD. The animals of Group 1 (n=4) were fed with only regular CD for five (5) weeks. The animals of Group 2 (n=4) were fed with CD and treated with STZ. The remaining animals (n=4) were fed with HFD for 3 weeks and sacrificed to verify the model development (Group 3). Groups 4-13 were fed with HFD for 5 weeks. After 3 weeks, the animals in Groups 5-13 were treated with STZ and administered with individual or combined substances. The animals in Group 4 were injected (icy) with a control substance (saline) after 3 weeks.
(§3) Before surgical procedures, the rats were anesthetized by intraperitoneal administration of ketamine-xylazine (50 mg/kg ketamine and 5 mg/kg xylazine) and placed individually in the stereotaxic instrument (Stoelting, Ill., USA). Stereotaxic coordinates for injection were 0.8 mm posterior to the bregma, 1.5 mm lateral to the sagittal suture and 3.6 mm below the brain surface (Pellegrino et al. 1979). Then, 10 microliters of STZ (3 mg/kg, Sigma-Aldrich, Darmstadt, Germany) were injected over 3 min with a Hamilton micro-syringe into the bilateral ventricle. The injection needles were left in place for an additional 2 min to allow diffusion.
(§4) For carrying out the treatment experiments, the HFD rats were randomly separated into nine (9) subgroups of four (4) animals (Groups 5-13).
(§5) The body weight of the rats was recorded each week. After 5 weeks, all animals were anesthetized with isoflurane and sacrificed. Blood samples were collected from the abdominal aorta and centrifuged at 8000 rpm for 15 min at 4° C. The plasma was separated and stored at −80° C. until further analysis. Other internal organs, including the heart, adipose tissues, liver, kidney, brain, muscle, intestine (duodenum, ileum, jejunum), pancreas, colon and stomach were immediately removed and then snap-frozen in liquid nitrogen and stored at −80° C.
(§6) Tissue sections taken on adhesive (poly-L-Lysin) slides for immunoperoxidase examination were deparaffinized and […]. After washing the tissues with suppressed endogenous peroxidase activity in 3% H2O2 were boiled in antigen retrieval solution. In order to prevent nonspecific background staining in the sections, protein block compatible with all primary and secondary antibodies was dropped and incubated for 5 minutes. For brain tissues, primary antibody Caspase 3 (Cat No:sc-56053 Dilution Ratio:1/100 US) was dropped and incubated for 1 hour at 37° C. After washing, secondary FITC (Cat No: ab6717 Dilution Ratio:1/500 UK) was dropped and incubated at 37° C. for 30 minutes. The other primary antibody H2A.X (Cat No:I 0856-1 Dilution Ratio:1/100 US) was dropped and incubated at 37° C. for 1 hour. After washing, secondary Texas Red (Cat No: se-3917 Dilution Ratio:1/100 US) was dropped and incubated at 37° C. for 30 minutes. DAPI (Cat No:D-1306 Dilution Ratio:1/200 US) was dripped onto the washed tissues and incubated in the dark for 5 minutes, then glycerin was sealed.

8-OHdG = assay: Alzheimer's disease study in HFD + icv STZ rats, immunohistochemical examination of brain tissues; assay type: in vivo, Sprague-Dawley rats; conditions: for 8 OHdG expression in immunohistochemical staining: HFD + STZ rats, grade in words; for 8-OHdG (IHC): HFD 5 weeks + STZ 3 mg/kg icv, substances once daily by oral gavage, score
Method: as §1, §2, §3, §4, §5
Tissue sections taken on adhesive (poly-L-Lysin) slides for immunoperoxidase examination were deparaffinized and […]. After washing the tissues with suppressed endogenous peroxidase activity in 3% H2O2 were boiled in antigen retrieval solution. In order to prevent nonspecific background staining in the sections, protein block compatible with all primary and secondary antibodies was dropped and incubated for 5 minutes. 8-OHdG (Cat no: sc-66036 dilution ratio: 1/100 US) was used as the primary antibody for brain tissues.

Caspase 3 = assay: Alzheimer's disease study in HFD + icv STZ rats, immunofluorescence examination of brain tissues (FITC); assay type: in vivo, Sprague-Dawley rats; conditions: for Caspase-3 expression in immunofluorescence staining: HFD + STZ rats, grade in words; for Caspase 3 (IFA FITC): HFD 5 weeks + STZ 3 mg/kg icv, substances once daily by oral gavage, score
Method: as §1, §2, §3, §4, §5, §6

brain tissues = assay: Alzheimer's disease study in HFD + icv STZ rats, histopathology (HE) of brain tissues; assay type: in vivo, Sprague-Dawley rats
Method: as §1, §2, §3, §4, §5
Tissue samples obtained as a result of the experimental procedure were fixed in 10% buffered formalin solution for 48 hours. Following the routine tissue procedure, the tissues were embedded in paraffin blocks and 4 μm thick sections were taken from each block. Preparations prepared for histopathological examination were stained with hematoxylin-eosin (HE) and examined with a light microscope (Olympus BX51, Germany).

hepatic steatosis = assay: short-term dietary supplementation with serine in obese subjects with hepatic steatosis; assay type: in vivo, human
Method: To test the model-based predictions, the present inventors assessed the effect of short-term dietary supplementation with serine on fatty liver and fasting levels of plasma markers of liver functions in six obese subjects (BMI 32.5±2.70 kg/m2) with hepatic steatosis. Each patient received one oral dose of ˜20 g of L-serine (200 mg/kg) per day for 14 days. The supplementation was well-tolerated by all subjects.

[1] = fasting plasma marker of liver function, after 14 days of ~20 g/day oral L-serine
[2] = brain tissues, HFD 5 weeks + STZ 3 mg/kg icv, substances once daily by oral gavage, score

| SMILES | H2A.X expression in immunofluorescence staining (H2A.X) | 8 OHdG expression in immunohistochemical staining (8-OHdG) | Caspase-3 expression in immunofluorescence staining (Caspase 3) | degeneration in neurons (brain tissues; HFD + STZ rats, grade in words) | hyperemia in brain tissues (brain tissues; HFD + STZ rats, grade in words) | necrosis in neurons (brain tissues; HFD + STZ rats, grade in words) | liver fat after supplementation (hepatic steatosis; after 14 days of ~20 g/day oral L-serine, decreased significantly from 26.8±6.0% before) | ALP level (hepatic steatosis; [1]) | ALT level (hepatic steatosis; [1]) | AST level (hepatic steatosis; [1]) | tolerability of the supplementation (hepatic steatosis; six obese subjects, one oral dose of ~20 g L-serine (200 mg/kg) per day for 14 days) | H2A.X (IFA Texas Red) (H2A.X) | 8-OHdG (IHC) (8-OHdG) | Caspase 3 (IFA FITC) (Caspase 3) | Hyperemia (brain tissues; [2]) | degeneration in neurons (brain tissues; [2]) | necrosis in neurons (brain tissues; [2]) |
| --- | --- | --- | --- | --- | --- | --- | --- | --- | --- | --- | --- | --- | --- | --- | --- | --- | --- |
| N[C@@H](CO)C(=O)O [Group 6, serine] | moderate | moderate | moderate | moderate | Moderate | mild | 20.4±7.0% | significantly decreased | significantly decreased | significantly decreased | well-tolerated |  |  |  |  |  |  |
| NC(CO)C(=O)O (centres unmarked) [Group 6] |  |  |  |  |  |  |  |  |  |  |  | +++ (moderate (+++)) | +++ (moderate (+++)) | +++ (moderate (+++)) | +++ (moderate (+++)) | +++ (moderate (+++)) | ++ (mild (++)) |
| CC(=O)N[C@@H](CS)C(=O)O [Group 7, N-acetyl-L-cysteine, reference compound] | moderate | moderate | moderate | severe | Severe | moderate |  |  |  |  |  |  |  |  |  |  |  |
| CC(=O)NC(CS)C(=O)O (centres unmarked) [Group 7] |  |  |  |  |  |  |  |  |  |  |  | +++ (moderate (+++)) | +++ (moderate (+++)) | +++ (moderate (+++)) | ++++ (severe (++++)) | ++++ (severe (++++)) | +++ (moderate (+++)) |
| C[N+](C)(C)C[C@H](O)CC(=O)[O-].O=C(O)C(O)C(O)C(=O)O [Group 8, L-carnitine tartrate, reference compound] | moderate | moderate | moderate | moderate | Moderate | mild |  |  |  |  |  |  |  |  |  |  |  |
| C[N+](C)(C)CC(O)CC(=O)O.C[N+](C)(C)CC(O)CC(=O)O.O=C([O-])C(O)C(O)C(=O)[O-] (centres unmarked) [Group 8] |  |  |  |  |  |  |  |  |  |  |  | +++ (moderate (+++)) | +++ (moderate (+++)) | +++ (moderate (+++)) | +++ (moderate (+++)) | +++ (moderate (+++)) | ++ (mild (++)) |
| NC(=O)c1ccc[n+]([C@@H]2O[C@H](CO)[C@@H](O)[C@H]2O)c1.[Cl-] [Group 9, nicotinamide riboside chloride] | moderate | moderate | moderate | moderate | Moderate | mild |  |  |  |  |  |  |  |  |  |  |  |
| NC(=O)c1ccc[n+](C2OC(CO)C(O)C2O)c1.[Cl-] (centres unmarked) [Group 9] |  |  |  |  |  |  |  |  |  |  |  | +++ (moderate (+++)) | +++ (moderate (+++)) | +++ (moderate (+++)) | +++ (moderate (+++)) | +++ (moderate (+++)) | ++ (mild (++)) |
